Source: patent US20190292189A1, “LIM KINASE INHIBITORS” (VIRONGY, LLC, priority 2016, published 2019)
pIC50: −log10 of the molar value. Where two headings read alike, the source gives them in different places.

How the values were obtained:
[1] = test system: HIV-1(NL4-3); assay: microbe, parasite or virus in culture; format: cell-based
[2] = test system: PC-3 cells; assay: In vitro migration (wound closure) assay in PC-3 cells; format: cell-based; details: Homo sapiens, PC-3, 24 hours, compared to the control, read-out: inhibition of migration of PC-3 cells
Experimental: PC3 cells were cultured to confluence at >90% in 6 well culture dishes in 10% FBS RPMI1640 media the day before the assay. Lines were drawn with a marker on the bottom of the dishes. Using a sterile 1 mL pipet tip, the dishes were scratched three separate wounds through the cells moving perpendicular to the line drawn in the step above. The cells were rinsed with PBS twice very gently and added the RPMI1640 media, and the dishes were taken pictures using phase contrast under Leica DMI3000B microscope.

[3] = molecular target: T1, LRRK2 (G20195) (Homo sapiens, UniProt Q5S007, G2019S); assay: Kinase profiling at 1 μM (Reaction Biology); format: biochemical
T1 construct: purchased Reaction Biology Corporation
T1 sequence (Q5S007 970-2527 G2019S limits assumed): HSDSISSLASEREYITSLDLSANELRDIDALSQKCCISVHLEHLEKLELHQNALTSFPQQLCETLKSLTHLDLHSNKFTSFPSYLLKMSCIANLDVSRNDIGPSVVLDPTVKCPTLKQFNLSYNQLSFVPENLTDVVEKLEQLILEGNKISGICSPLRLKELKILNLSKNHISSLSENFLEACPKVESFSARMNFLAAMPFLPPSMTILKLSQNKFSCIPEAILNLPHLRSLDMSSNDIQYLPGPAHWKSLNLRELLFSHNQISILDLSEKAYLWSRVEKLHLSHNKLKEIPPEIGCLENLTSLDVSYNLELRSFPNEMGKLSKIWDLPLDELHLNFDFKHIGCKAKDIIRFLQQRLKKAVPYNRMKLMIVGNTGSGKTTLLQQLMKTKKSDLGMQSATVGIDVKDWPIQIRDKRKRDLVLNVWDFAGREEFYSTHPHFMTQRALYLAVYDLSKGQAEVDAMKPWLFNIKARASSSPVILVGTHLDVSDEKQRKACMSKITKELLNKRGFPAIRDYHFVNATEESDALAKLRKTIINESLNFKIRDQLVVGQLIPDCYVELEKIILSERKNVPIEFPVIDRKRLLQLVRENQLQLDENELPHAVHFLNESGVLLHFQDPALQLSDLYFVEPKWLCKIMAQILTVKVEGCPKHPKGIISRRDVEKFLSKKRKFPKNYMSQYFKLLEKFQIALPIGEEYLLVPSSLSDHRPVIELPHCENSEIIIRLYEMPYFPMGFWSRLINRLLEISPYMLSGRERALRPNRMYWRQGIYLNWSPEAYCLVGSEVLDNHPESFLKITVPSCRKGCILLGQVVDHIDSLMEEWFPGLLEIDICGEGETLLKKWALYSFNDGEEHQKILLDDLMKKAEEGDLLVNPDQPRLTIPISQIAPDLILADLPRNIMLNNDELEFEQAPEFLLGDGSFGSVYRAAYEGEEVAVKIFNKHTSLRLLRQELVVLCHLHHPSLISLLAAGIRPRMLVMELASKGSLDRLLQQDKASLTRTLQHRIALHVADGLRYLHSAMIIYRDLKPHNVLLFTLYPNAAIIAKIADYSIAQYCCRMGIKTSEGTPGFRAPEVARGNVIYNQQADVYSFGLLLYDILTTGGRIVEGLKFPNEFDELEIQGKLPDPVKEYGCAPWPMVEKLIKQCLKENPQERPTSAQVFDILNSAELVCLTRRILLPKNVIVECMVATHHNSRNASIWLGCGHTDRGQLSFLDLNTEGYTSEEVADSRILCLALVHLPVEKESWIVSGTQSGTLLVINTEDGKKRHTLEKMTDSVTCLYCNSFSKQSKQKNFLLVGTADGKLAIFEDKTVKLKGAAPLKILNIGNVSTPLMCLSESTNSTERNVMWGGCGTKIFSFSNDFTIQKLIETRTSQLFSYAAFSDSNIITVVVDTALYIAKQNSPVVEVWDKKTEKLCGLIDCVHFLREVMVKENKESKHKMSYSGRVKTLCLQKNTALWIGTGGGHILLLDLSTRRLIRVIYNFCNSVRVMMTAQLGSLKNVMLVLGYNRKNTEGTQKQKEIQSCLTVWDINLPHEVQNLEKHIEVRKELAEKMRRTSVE
Experimental: (§1) Profiling was carried out at Reaction Biology Corporation following a protocol described at its website: http://www.reactionbiology.com/webapps/site/. The % data were the average from two determinations. ATP concentration used: 10 μM; Staurosporine was used as the positive control.
(§2) Biochemical assays for all Limk inhibitors and kinase profiling were carried out in Reaction Biology Corporation and followed the protocols described on its website. […] Compounds were tested at 1 μM with duplicate experiments in profiling assays. […] Reactions were carried out at 10 μM ATP, 1 μM substrate cofilin, and 50 nM Limk1 (final concentrations).

[4] = test system: PC-3 cells; assay: In vitro invasion assay in PC-3 cells; format: cell-based; details: Homo sapiens, 48 hours, compared to the control
Experimental: Transwell chambers coated with GFR Matrigel (BD Biosciences) were used for measurement of cell invasion. The matrigel was solidified at 37° C. in a humidified incubator the day before the assay. PC3 cells (1×10^3 cells per well) were grown in serum-free RPMI1640 media in the upper side of the insert. The lower well was filled with RPMI 1640 supplemented with 10% FBS with a Limk inhibitor (1 μM). PC3 cells were incubated at 37° C. in a humidified atmosphere containing 5% CO2 for 48 h. Then transwell membrane was rinsed three times with PBS, and the cells were fixed in 2.5% EM grade glutaraldehyde for 15 min at room temperature (RT) with no shaking. After removing glutaraldehyde by aspirating, the cells were permeabilized with 0.5% Triton X-100 in PBS for 3 min at RT, and they were rinsed three times with PBS. Then, the cells were stained by Gill's hematoxylin No. 1 for 15 min at RT, and they were washed by distilled water for three times. To remove any residual stain, the cells were washed by acid alcohol for 3 minutes and then rinsed by distilled water twice. The cells were exposed with 0.04% NH4OH until a blue color is observed on the membrane and then rinsed by distilled water twice. The membranes were dried overnight, and the stained cells were visualized under Leica DMI3000B microscope.

[5] = molecular target: P450 3A4 (Homo sapiens, UniProt P08684); assay: P450 inhibition at 10 μM; format: in vitro ADME
[6] = molecular target: T2, ALK (Homo sapiens, UniProt Q9UM73); assay: Kinase profiling at 1 μM (Reaction Biology); format: biochemical; details: ATP 10 μM
T2 construct: purchased Reaction Biology Corporation
Experimental: as §1, §2

[7] = molecular target: T3, PIM2 (Homo sapiens, UniProt Q9P1W9); assay: Kinase profiling at 1 μM (Reaction Biology); format: biochemical; details: ATP 10 μM
T3 construct: purchased Reaction Biology Corporation
Experimental: as §1, §2

[8] = molecular target: T4, G5K3b (Homo sapiens, UniProt P49841); assay: Kinase profiling at 1 μM (Reaction Biology); format: biochemical; details: ATP 10 μM
T4 construct: purchased Reaction Biology Corporation
T4 sequence (P49841 whole entry): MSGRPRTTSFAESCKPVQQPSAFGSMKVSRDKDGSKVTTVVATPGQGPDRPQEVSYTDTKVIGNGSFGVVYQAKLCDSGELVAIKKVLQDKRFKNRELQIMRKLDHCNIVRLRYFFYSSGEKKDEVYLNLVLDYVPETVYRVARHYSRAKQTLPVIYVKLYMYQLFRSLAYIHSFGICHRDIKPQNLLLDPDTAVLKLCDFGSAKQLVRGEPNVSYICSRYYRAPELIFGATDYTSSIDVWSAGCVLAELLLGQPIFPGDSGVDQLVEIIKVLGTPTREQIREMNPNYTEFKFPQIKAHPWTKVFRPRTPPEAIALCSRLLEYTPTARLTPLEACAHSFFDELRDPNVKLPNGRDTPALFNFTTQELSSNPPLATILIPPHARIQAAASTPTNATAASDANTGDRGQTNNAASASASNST
Experimental: as §1, §2

[9] = molecular target: T5, PKA (Homo sapiens, UniProt P17612); assay: Kinase profiling at 1 μM (Reaction Biology); format: biochemical; details: ATP 10 μM
T5 construct: purchased Reaction Biology Corporation
Experimental: as §1, §2

[10] = molecular target: T6, MLCK/MYLK (Homo sapiens, UniProt Q15746); assay: Kinase profiling at 1 μM (Reaction Biology); format: biochemical; details: ATP 10 μM
T6 construct: purchased Reaction Biology Corporation
Experimental: as §1, §2

[11] = molecular target: T7, JNK1 (Homo sapiens, UniProt P45983); assay: Kinase profiling at 1 μM (Reaction Biology); format: biochemical; details: ATP 10 μM
T7 construct: purchased Reaction Biology Corporation
Experimental: as §1, §2

[12] = molecular target: T8, AKT2 (Homo sapiens, UniProt P31751); assay: Kinase profiling at 1 μM (Reaction Biology); format: biochemical; details: ATP 10 μM
T8 construct: purchased Reaction Biology Corporation
Experimental: as §1, §2

[13] = molecular target: T9, ZIPK/DAPK3 (Homo sapiens, UniProt O43293); assay: Kinase profiling at 1 μM (Reaction Biology); format: biochemical; details: ATP 10 μM
T9 construct: purchased Reaction Biology Corporation
Experimental: as §1, §2

[14] = molecular target: T10, ERK2/MAPK1 (Homo sapiens, UniProt P28482); assay: Kinase profiling at 1 μM (Reaction Biology); format: biochemical; details: ATP 10 μM
T10 construct: purchased Reaction Biology Corporation
Experimental: as §1, §2

[15] = molecular target: T11, SLK/STK2 (Homo sapiens, UniProt Q9H2G2); assay: Kinase profiling at 1 μM (Reaction Biology); format: biochemical; details: ATP 10 μM
T11 construct: purchased Reaction Biology Corporation
Experimental: as §1, §2

[16] = molecular target: T12, TESK1 (Homo sapiens, UniProt Q15569); assay: Kinase profiling at 1 μM (Reaction Biology); format: biochemical; details: ATP 10 μM
T12 construct: purchased Reaction Biology Corporation
T12 sequence (Q15569 whole entry): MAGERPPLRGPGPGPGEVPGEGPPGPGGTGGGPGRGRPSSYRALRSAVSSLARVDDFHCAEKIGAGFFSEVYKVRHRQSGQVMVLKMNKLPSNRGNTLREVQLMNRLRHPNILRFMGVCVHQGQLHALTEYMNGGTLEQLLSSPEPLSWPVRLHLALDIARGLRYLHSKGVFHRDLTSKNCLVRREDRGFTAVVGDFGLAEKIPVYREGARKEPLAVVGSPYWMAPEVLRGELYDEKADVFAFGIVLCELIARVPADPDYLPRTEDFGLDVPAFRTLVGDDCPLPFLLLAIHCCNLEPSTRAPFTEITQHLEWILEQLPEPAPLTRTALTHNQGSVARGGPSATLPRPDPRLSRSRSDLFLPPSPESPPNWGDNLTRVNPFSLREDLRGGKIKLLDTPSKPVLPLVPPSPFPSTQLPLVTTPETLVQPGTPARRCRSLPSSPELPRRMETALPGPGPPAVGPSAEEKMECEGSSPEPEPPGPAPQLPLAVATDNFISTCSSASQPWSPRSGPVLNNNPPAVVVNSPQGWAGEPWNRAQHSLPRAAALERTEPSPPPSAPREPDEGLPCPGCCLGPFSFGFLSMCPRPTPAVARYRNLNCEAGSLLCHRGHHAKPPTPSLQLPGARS
Experimental: as §1, §2

[17] = molecular target: T13, c-MET (Homo sapiens, UniProt P08581); assay: Kinase profiling at 1 μM (Reaction Biology); format: biochemical; details: ATP 10 μM
T13 construct: purchased Reaction Biology Corporation
Experimental: as §1, §2

[18] = molecular target: T14, EPHA3 (Homo sapiens, UniProt P29320); assay: Kinase profiling at 1 μM (Reaction Biology); format: biochemical; details: ATP 10 μM
T14 construct: purchased Reaction Biology Corporation
Experimental: as §1, §2

[19] = molecular target: T15, c-5rc (Homo sapiens, UniProt P12931); assay: Kinase profiling at 1 μM (Reaction Biology); format: biochemical; details: ATP 10 μM
T15 construct: purchased Reaction Biology Corporation
Experimental: as §1, §2

[20] = molecular target: T16, JAK3 (Homo sapiens, UniProt P52333); assay: Kinase profiling at 1 μM (Reaction Biology); format: biochemical; details: ATP 10 μM
T16 construct: purchased Reaction Biology Corporation
T16 sequence (P52333 whole entry): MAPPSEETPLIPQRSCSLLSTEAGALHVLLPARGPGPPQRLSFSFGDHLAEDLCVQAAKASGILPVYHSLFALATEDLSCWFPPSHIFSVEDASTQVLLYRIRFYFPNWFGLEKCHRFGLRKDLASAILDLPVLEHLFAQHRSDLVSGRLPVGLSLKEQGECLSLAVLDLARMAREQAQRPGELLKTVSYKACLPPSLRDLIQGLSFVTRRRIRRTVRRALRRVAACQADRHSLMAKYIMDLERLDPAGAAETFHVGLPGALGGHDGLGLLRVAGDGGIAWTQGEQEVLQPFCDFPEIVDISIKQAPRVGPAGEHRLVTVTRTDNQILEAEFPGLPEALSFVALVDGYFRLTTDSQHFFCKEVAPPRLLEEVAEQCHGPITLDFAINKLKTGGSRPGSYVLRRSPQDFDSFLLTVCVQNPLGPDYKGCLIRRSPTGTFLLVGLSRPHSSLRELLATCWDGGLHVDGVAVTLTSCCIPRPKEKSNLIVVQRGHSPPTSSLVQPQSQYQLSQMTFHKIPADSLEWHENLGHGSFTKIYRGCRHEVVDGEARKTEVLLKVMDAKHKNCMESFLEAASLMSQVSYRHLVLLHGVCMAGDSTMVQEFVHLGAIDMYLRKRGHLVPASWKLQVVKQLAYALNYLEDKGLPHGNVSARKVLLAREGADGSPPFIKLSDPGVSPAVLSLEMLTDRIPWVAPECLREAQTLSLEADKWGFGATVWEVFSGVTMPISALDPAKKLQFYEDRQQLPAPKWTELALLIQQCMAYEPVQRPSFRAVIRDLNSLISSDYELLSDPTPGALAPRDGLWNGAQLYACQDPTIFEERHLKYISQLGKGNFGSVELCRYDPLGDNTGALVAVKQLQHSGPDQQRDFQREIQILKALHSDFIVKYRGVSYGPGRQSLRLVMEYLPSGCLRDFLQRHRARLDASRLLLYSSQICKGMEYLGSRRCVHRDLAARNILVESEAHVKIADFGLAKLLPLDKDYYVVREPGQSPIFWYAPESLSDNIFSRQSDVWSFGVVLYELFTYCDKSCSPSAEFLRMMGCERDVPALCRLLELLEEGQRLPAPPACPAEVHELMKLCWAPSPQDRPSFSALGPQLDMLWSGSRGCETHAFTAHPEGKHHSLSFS
Experimental: as §1, §2

[21] = molecular target: T17, BRAF (Homo sapiens, UniProt P15056); assay: Kinase profiling at 1 μM (Reaction Biology); format: biochemical; details: ATP 10 μM
T17 construct: purchased Reaction Biology Corporation
Experimental: as §1, §2

[22] = molecular target: T18, p70S6K/RPS6KB1 (Homo sapiens, UniProt P23443); assay: Kinase profiling at 1 μM (Reaction Biology); format: biochemical; details: ATP 10 μM
T18 construct: purchased Reaction Biology Corporation
Experimental: as §1, §2

[23] = molecular target: T19, R5K1 (Homo sapiens, UniProt Q15418); assay: Kinase profiling at 1 μM (Reaction Biology); format: biochemical; details: ATP 10 μM
T19 construct: purchased Reaction Biology Corporation
T19 sequence (Q15418 whole entry): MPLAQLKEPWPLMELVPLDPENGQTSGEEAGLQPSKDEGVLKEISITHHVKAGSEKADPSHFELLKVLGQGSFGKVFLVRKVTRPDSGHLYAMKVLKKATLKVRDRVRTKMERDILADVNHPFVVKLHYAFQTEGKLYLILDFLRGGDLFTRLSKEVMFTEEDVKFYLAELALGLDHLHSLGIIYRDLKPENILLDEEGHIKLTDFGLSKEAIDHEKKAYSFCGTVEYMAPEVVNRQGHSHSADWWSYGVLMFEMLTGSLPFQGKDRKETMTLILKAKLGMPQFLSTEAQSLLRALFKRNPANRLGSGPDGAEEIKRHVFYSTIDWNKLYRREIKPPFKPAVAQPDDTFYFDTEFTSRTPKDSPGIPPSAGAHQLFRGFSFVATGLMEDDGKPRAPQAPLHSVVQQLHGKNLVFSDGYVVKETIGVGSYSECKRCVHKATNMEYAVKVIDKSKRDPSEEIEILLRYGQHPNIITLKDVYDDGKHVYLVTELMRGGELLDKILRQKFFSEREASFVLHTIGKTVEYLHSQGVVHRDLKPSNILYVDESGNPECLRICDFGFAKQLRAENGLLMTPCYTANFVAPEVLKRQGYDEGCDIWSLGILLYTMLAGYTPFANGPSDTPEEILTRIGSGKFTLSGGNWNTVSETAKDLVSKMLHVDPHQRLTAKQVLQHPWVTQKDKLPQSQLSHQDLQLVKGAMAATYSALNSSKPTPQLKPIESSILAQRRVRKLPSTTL
Experimental: as §1, §2

[24] = molecular target: T20, STK16 (Homo sapiens, UniProt O75716); assay: Kinase profiling at 1 μM (Reaction Biology); format: biochemical; details: ATP 10 μM
T20 construct: purchased Reaction Biology Corporation
Experimental: as §1, §2

[25] = molecular target: T21, IKKa/CHUK (Homo sapiens, UniProt O15111); assay: Kinase profiling at 1 μM (Reaction Biology); format: biochemical; details: ATP 10 μM
T21 construct: purchased Reaction Biology Corporation
Experimental: as §1, §2

[26] = molecular target: T22, STK33 (Homo sapiens, UniProt Q9BYT3); assay: Kinase profiling at 1 μM (Reaction Biology); format: biochemical; details: ATP 10 μM
T22 construct: purchased Reaction Biology Corporation
T22 sequence (Q9BYT3 whole entry): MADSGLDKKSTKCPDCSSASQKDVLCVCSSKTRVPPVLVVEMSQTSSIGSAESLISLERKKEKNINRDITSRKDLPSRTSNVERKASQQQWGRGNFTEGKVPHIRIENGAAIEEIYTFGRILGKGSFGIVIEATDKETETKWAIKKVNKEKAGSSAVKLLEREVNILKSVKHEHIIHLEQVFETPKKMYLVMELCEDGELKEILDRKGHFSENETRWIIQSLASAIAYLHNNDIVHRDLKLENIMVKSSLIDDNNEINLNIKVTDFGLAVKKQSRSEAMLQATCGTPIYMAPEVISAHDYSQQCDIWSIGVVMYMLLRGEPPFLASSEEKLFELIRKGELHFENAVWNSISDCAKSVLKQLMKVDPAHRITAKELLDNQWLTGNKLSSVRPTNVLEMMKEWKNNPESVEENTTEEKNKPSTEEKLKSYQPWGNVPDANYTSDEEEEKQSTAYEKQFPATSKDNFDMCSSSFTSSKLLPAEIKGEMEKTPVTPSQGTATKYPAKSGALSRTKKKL
Experimental: as §1, §2

[27] = molecular target: T23, TLK1 (Homo sapiens, UniProt Q9UKI8); assay: Kinase profiling at 1 μM (Reaction Biology); format: biochemical; details: ATP 10 μM
T23 construct: purchased Reaction Biology Corporation
Experimental: as §1, §2

[28] = molecular target: T24, CDK2/cyclin A (Homo sapiens, UniProt P24941); assay: Kinase profiling at 1 μM (Reaction Biology); format: biochemical; details: ATP 10 μM
T24 construct: purchased Reaction Biology Corporation
Experimental: as §1, §2

Cc1c[nH]c2ncnc(-c3ccc(NC(=O)N(CCO)c4ccccc4)cc3)c12 [Compound 18b, 1-(2-Hydroxyethyl)-3-(4-(5-methyl-7H-pyrrolo[2,3-d]pyrimidin-4-yl)phenyl)-1-phenylurea]
X4 HIV infection (screen) [1]: blocked
inhibition at 0.1 µM ([2]; 0.1 μM): 16.5%
inhibition at 1 µM ([2]; 1 μM): 74%
inhibition at 10 µM ([2]; 10 μM): 77.5%
inhibition at 1 µM ([3]; kinase panel): > 50%
inhibition at 1 µM [4]: 76%
P450 % inh. at 10 μM 3A4 [5]: 13%

COC(=O)c1ccc2[nH]c(C3CCN(c4ncnc5[nH]cc(Cl)c45)CC3)nc2c1 [Compound R10015, Methyl 2-(1-(5-chloro-7H-pyrrolo[2,3-d]pyrimidin-4-yl)piperidin-4-yl)-1Hbenzo[d]imidazole-5-carboxylate]
pIC50 ([1]; Human immunodeficiency virus 1, NL43, T-cell, read-out: half maximal inhibition concentration (IC50) for inhibiting HIV infection): 4.83
X4 HIV infection (screen) ([1]; […], dosages with no detectable cytotoxicity): blocked
activity at 1 µM [6]: 95.5%
activity at 1 µM [7]: 97.6%
activity at 1 µM [8]: 67.8%
activity at 1 µM [9]: 24%
activity at 1 µM [10]: 83.3%
activity at 1 µM [11]: 95.2%
activity at 1 µM [12]: 73.1%
activity at 1 µM [13]: 98.5%
activity at 1 µM ([3]; ATP 10 μM): 6.7%
activity at 1 µM [14]: 87.2%
activity at 1 µM [15]: 108%
activity at 1 µM [16]: 90.2%
activity at 1 µM [17]: 82.1%
activity at 1 µM [18]: 91.1%
activity at 1 µM [19]: 92.4%
activity at 1 µM [20]: 61.1%
activity at 1 µM [21]: 91.9%
activity at 1 µM [22]: 10%
activity at 1 µM [23]: 47.2%
activity at 1 µM [24]: 48.6%
activity at 1 µM [25]: 90.5%
activity at 1 µM [26]: 56.5%
activity at 1 µM [27]: 98.5%
activity at 1 µM [28]: 82.7%
